According to PubChem BioAssay AID624167 (Sanford-Burnham Center for Chemical Genomics, 2012):
Active and inactive are the calls of the source.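 The calls were made as follows: active = mean IC50 for reducing PEG3 promoter reporter signal at or below a set limit, with IC50 above the limit in both counter screens; inactive = the rest, including counter screen hits.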

Experiments:
[1] = molecular target: PEG-3 (UniProt Q6IN02); assay: inhibition of PEG-3 promoter-driven reporter – cell-based, HeLa, luciferase, CREF/GAPDH counter-screen panel, dose response (AID 624167); settings: HeLa PEG-Prom luciferase reporter, overnight, CREF/GAPDH counter-screens, mean of runs
Chain of PEG-3 (UniProt Q6IN02) (Q6IN02 whole entry, looked up): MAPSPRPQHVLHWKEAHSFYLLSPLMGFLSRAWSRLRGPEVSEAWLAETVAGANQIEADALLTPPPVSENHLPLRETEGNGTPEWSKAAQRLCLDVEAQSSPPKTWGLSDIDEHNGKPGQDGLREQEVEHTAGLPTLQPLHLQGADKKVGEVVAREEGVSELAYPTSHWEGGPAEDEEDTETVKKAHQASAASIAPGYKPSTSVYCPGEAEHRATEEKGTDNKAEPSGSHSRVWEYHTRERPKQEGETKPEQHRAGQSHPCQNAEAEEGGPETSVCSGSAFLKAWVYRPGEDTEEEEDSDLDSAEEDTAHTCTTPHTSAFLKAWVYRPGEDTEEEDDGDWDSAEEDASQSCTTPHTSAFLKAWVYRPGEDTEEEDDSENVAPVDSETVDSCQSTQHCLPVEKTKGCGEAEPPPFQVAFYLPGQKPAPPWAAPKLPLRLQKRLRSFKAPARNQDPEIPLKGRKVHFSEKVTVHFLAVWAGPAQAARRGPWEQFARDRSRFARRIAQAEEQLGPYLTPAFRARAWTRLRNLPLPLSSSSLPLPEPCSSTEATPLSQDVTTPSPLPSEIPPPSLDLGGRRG

[2] = tested on: PEG-3; assay: as above; settings: HeLa PEG-Prom luciferase reporter, overnight, CREF/GAPDH counter-screens
[3] = run 1, dose range 1, individual replicate IC50 per panel
[4] = run 2, dose range 1, individual replicate IC50 per panel

SMILES | IC50 [1] | IC50 [2, 3] [µM] | IC50 [2, 4] [µM]
CCN(CC)C(=O)c1ccc(NC(=O)Nc2ccccc2F)cc1 | 17.2 µM | 18.8 | 15.6
COc1cccc(/C=N/NC(=O)c2c(-c3ccccc3)noc2C)c1O | inactive | 42.2 | > 100
O=C1CSC(=S)N1Cc1cccnc1 | 17.9 µM | 28.3 | 7.51
CC(C)(C)C(=O)Nc1cc2nn(-c3ccccc3)nc2cc1Cl | 12.2 µM | 10.9 | 13.5
O/N=C(\c1ccc(Cl)cc1Cl)c1ncc(C(F)(F)F)cc1Cl | inactive | 32.4 | 29.9
CCc1nccn1C(=O)c1cnn2c(C(F)F)cc(-c3ccc(C)cc3)nc12 | 17.2 µM | 18.7 | 15.6
Cc1cccc(N=C2Sc3nc4c(C)c(C)ccc4cc3CN2CCN2CCOCC2)c1 | inactive | 29.3 | 32
CC(=O)Nc1ccc(S(=O)(=O)N(Cc2cccnc2)Cc2cc3ccccc3[nH]c2=O)cc1 | > 100 µM (inactive) | > 100 | > 100
Cc1cc(C)c2c(N)c3ccccc3nc2n1 | inactive | 18.5 | > 100
CC(=O)OC(C)(C)/C=C/C(=O)C(C)(O)C1[C@H](O)C[C@@]2(C)C3CC=C4C(CC[C@@H](O)C4(C)C)[C@]3(CO)C(=O)C[C@]12C (stereo partly drawn) | inactive | 47 | < 0.2
COc1ccc(CN(C)C(=O)c2cc(-c3ccccc3)nc3ccc(C)cc23)c(OC)c1OC | inactive | 32.8 | 23.7
COc1nc(N)c(C#N)c(-c2ccc(N(C)CCC#N)cc2)c1C#N | inactive | 6.32 | 35.8
COc1ccc(-n2cc(CNC3CCN(C)CC3)c(-c3cccc(F)c3)n2)cc1 | inactive | 26 | 15.3
C=C(C)Cn1c(SCC(=O)N/N=C/c2c(O)ccc3ccccc23)nc2ccccc2c1=O | > 100 µM (inactive) | > 100 | > 100
CN[C@H]1C[C@H]2c3[nH]c4ccc(-c5cccc(C)c5)cc4c3CCN2C[C@H]1[C@H](C)O | 13.6 µM | 18.8 | 8.37
O=S(=O)(Nc1cccc2cccnc12)c1ccccc1 | inactive | > 100 | 7.43
O=C(Nc1ccc(S(=O)(=O)NC2=NCCCCC2)cc1)c1ccc([N+](=O)[O-])s1 | 15.4 µM | 19.2 | 11.7
COc1ccc(CNCCC(c2ccccc2)c2ccc(OC(C)C)cc2)cc1OC (stereo not drawn) | 18.8 µM | 18.1 | 19.5
CCOC(=O)/C(=C\c1ccccc1)C(=O)CCN1CCOCC1 | 13.3 µM | 16.6 | 9.98
CCOC(=O)C1CCN(c2cc3c(cc2NC(=O)c2ccccc2OCC)n(C)c(=O)n3C)CC1 | inactive | 35.7 | > 100
O=C(Nc1ccc(-c2nc3ccccc3o2)cc1)c1ccc(N2CCOCC2)c([N+](=O)[O-])c1 | > 100 µM (inactive) | > 100 | > 100
COC(=O)c1ccc(Nc2cc(C)nc3ccc(C)cc23)cc1 | 13.6 µM | 17.9 | 9.4

SMILES | IC50 [1] | IC50 [2, 3] [µM] | IC50 [2, 4] [µM]
CN(C)CCNc1ccc(CO)c2oc3ccc(O)cc3c(=O)c12 | 16.9 µM | 20.4 | 13.5
COc1ccc(-c2nc(NC(=O)c3n[nH]c(=O)c4ccccc34)sc2C)cc1 | inactive | 0.904 | > 100
O=C(c1ccco1)N1CCN(c2ncnc3c2[nH]c2ccc(Br)cc23)CC1 | inactive | 24.9 | 24.1
COc1ccccc1NC(=O)c1cc(-c2cc(OC)c(OC)c(OC)c2)nc2ccccc12 | 15.2 µM | 27.3 | 3.16
COc1cccc(C(=O)c2sc(NC(C)C)nc2N)c1 | 15 µM | 16.5 | 13.6
CCOc1ccc2[nH]c3c(NCCc4ccc(OC)c(OC)c4)ncnc3c2c1 | inactive | 46.3 | > 100
COc1ccc(CC(N)c2csc(Nc3cccc(OC)n3)n2)cc1 (stereo not drawn) | 15.9 µM | 17.6 | 14.2
COc1ccc(C2c3c(ncn(CCCN4CCOCC4)c3=N)Oc3ccc4ccccc4c32)cc1OC (stereo not drawn) | 18.7 µM | 20.9 | 16.5
CCc1ccc(O)c(CNCCNCc2cc(CC)ccc2O)c1 | 18.5 µM | 20.6 | 16.4
c1ccc(CN=C(NCc2ccccc2)NCc2ccccc2)cc1 | inactive | 23.4 | 41.9
CN1Cc2c(N3CCOCC3)nc3sc(C(=O)c4ccc(Br)cc4)c(N)c3c2CC1(C)C | 15.2 µM | 18.8 | 11.6
O=C(O)CN1C(=O)/C(=C\c2ccccc2OCc2ccc(Cl)cc2Cl)SC1=S | 16.9 µM | 16.6 | 17.2
C/C(=N\N=C(N)N)c1ccc(Cl)c(Cl)c1 | 18.7 µM | 20.3 | 17
CC[n+]1c(-c2ccccc2)c2cc(N)ccc2c2ccc(N)cc21 | 15.7 µM | 7.7 | 23.6
Cc1ccc2sc(N(CCCN(C)C)C(=O)c3ccc(S(=O)(=O)N(C)C4CCCCC4)cc3)nc2c1C | 17.2 µM | 20.7 | 13.7
Cc1ccc(C(=O)N2CCN(c3ccc([N+](=O)[O-])c(NCc4cccnc4)c3)CC2)cc1 | 16.7 µM | 10.6 | 22.7
Cc1ccc(C)c(NP(=O)(Oc2ccccc2)Oc2ccccc2)c1 | inactive | 28.7 | 19.1
COc1cccc(NC(=O)Nc2cccc(C(=O)O)c2)c1 | inactive | 15.1 | 30
N/C(=N\OC(=O)c1ccccc1)C(Cc1ccccc1)C(=O)NOC(=O)c1ccccc1 (stereo not drawn) | 13 µM | 15 | 11
COc1ccc(/C=C/C(=O)c2ccc3c4c(cccc24)CC3)cc1OC | inactive | 31.6 | 42
O=C(CCN1C(=O)/C(=C/c2cccs2)SC1=S)N1CCCCC1 | inactive | 24.6 | 25.5
CSc1ccc2c(c1)C(N1CCN(C)CC1)Cc1ccccc1S2 (stereo not drawn) | 11.6 µM | 16.9 | 6.17

SMILES | IC50 [1] | IC50 [2, 3] [µM] | IC50 [2, 4] [µM]
CCOC(=O)c1ccc(NC(=O)C2CCCN(S(=O)(=O)c3ccc(F)cc3)C2)cc1 (stereo not drawn) | inactive | 20.9 | 43.1
CC(=O)c1ccc(Nc2nc(C(N)Cc3ccc(Cl)cc3)cs2)cc1 (stereo not drawn) | inactive | 25.7 | 15.1
CN(C)CCCN1c2ccccc2Sc2ccc3ccccc3c21 | 16.9 µM | 17.7 | 16
CC1(C)CC(NC(=O)c2sc3cc(Cl)ccc3c2Cl)CC(C)(C)N1 | 18.1 µM | 20.7 | 15.6
CCN1C/C(=C/c2ccc(N3CCOCC3)cc2)C(=O)/C(=C/c2ccc(N3CCOCC3)cc2)C1 | 14.5 µM | 15.9 | 13
O=C(NC1CCCCC1)C(c1cccnc1)N(C(=O)CCl)c1cccc(Cl)c1 (stereo not drawn) | 15.5 µM | 17.6 | 13.4
CCOc1ccc(Nc2c3ccccc3nc3ccccc23)cc1 | 16.9 µM | 21.9 | 11.9
CCC(C)Sc1ccc(-c2nc3ccccn3c2NCc2ccccc2)cc1OC (stereo not drawn) | inactive | 38.3 | 20.2
CCOC(=O)c1cccc(Nc2nc(-c3cccnc3)nc3ccccc23)c1 | 11.8 µM | 12.1 | 11.4
c1cc2c3c(cccc3c1)NC1(CCC3(CC1)Nc1cccc4cccc(c14)N3)N2 | inactive | 18.4 | 44.7
Cc1cc(C)c2sc(N(CCCN(C)C)C(=O)c3ccc(S(=O)(=O)N(C)C4CCCCC4)cc3)nc2c1 | 16 µM | 18.9 | 13
COc1ccccc1CN(C)C(=O)c1cc(-c2cc(OC)c(OC)c(OC)c2)nc2ccccc12 | inactive | 19.2 | 40
C/C(=N\N=C(N)N)c1ccc(Cl)cc1Cl | 18 µM | 18.7 | 17.2
CN(C)C=NC(=O)c1[nH]c2ccc(Cl)cc2c1-c1ccccc1 | 18.9 µM | 18 | 19.9
Cc1cc(C)cc(NC(=O)Cn2c(=O)oc3cc(S(=O)(=O)N4CCC(C)CC4)ccc32)c1 | inactive | > 100 | 7.9
CC(NC(=O)c1ccc([N+](=O)[O-])o1)C12CC3CC(CC(C3)C1)C2 (stereo not drawn) | inactive | 32.3 | 14.9
CCCC(=O)NC(c1cccc([N+](=O)[O-])c1)c1ccc2cccnc2c1O (stereo not drawn) | 11.1 µM | 3.15 | 19
O=C1c2ccccc2S(=O)(=O)N1Cc1nc2ccccc2s1 | 11.3 µM | 8.32 | 14.3
CC[C@@H](O)C[C@H]1CCC[C@@]2(C[C@@H]3OC(=O)/C=C/[C@@](C)(O)[C@@H](O)[C@H](C)[C@@H](O)[C@H](OC4CCC(N(C)C)C(C)O4)[C@@H](O)[C@](C)(O)CCCCC/C=C/[C@@H]4CC(C)(C)O[C@@]4(O)C[C@H](O2)[C@H]3C)O1 (stereo partly drawn) | 15.8 µM | 18.2 | 13.4
O=C(Nc1ccccc1N1CCOCC1)c1cc(-c2ccncc2)nc2ccccc12 | inactive | 33 | 78.3
O=C(c1cc(-c2cccs2)nn1-c1ccccc1)N1CCN(S(=O)(=O)c2ccccc2)CC1 | inactive | 8.84 | > 100
CCN(Cc1ccccc1)S(=O)(=O)c1ccc(C(=O)N(CCCN(C)C)c2nc3cc4c(cc3s2)OCCO4)cc1 | inactive | 33.3 | > 100
